This is an account of results in patent US8962587B2, “Gene delivery of OCT4 and SirT1 and pharmaceutical compositions thereof” (Taipei Veterans General Hospital, priority 2011, dated 2015).

The assay concerns aRPE cells. Nature of the assay: intracellular ROS, GSH, MDA, antioxidant enzyme activity and survival in aRPE cells (basal, H2O2, BSO, Tempol). The class given is cell-based, human. The note with it: aRPE-PU cells, pretreatment 0.5 mmol/L, then 100 μM H2O2, p<0.05 vs H2O2. The method, then: The results were expressed as nmol/g protein. Total SOD activity was determined by Superoxide Dismutase Activity Colorimetric Assay Kit (Abcam) according to manufacturer's protocol. SOD activity was expressed as units/g protein. GSH-Px and CAT activities were measured by glutathione peroxidase cellular activity assay kit and catalase assay kit, both are purchased from Sigma.
Cultured aRPE cells were washed with PBS twice and treated with 100 μM H2O2. After 8 hours, the medium was removed, and the cells were collected for the subsequent experiments. […] In brief, cells were incubated with […] DCFH-DA in culture medium for 30 min at 37° C., followed by washing with PBS and flow cytometric analysis. The intracellular GSH content was detected by colorimetric assay using the GSH-400 kit (OXIS International, Portland, Oreg., USA). In the GSH-400 assay, 4-chloro-1-methyl-7-trifluoromethyl-quinolinium methylsulfate was added to react with all mercaptans in the sample, leading to the formation of substitution products, […]. Then, 30% sodium hydroxide was used to mediate a β-elimination reaction and specifically transform GSH-thioester into a chromophoricthione with a maximal absorbance wavelength at 400 nm that was detected by a spectrophotometer.

With `CC1(C)CC(O)CC(C)(C)N1[O]` [Tempol, 4-hydroxy-2,2,6,6-tetramethylpiperidinyloxy], the “H2O2-induced ROS production” value is reported as “decreased” and the H2O2-induced cell death entry is “decreased”.
